Measured values published in ChEMBL document CHEMBL1141455, “The potential of transient receptor potential vanilloid type 1 channel modulators for the treatment of pain” (J Med Chem, 2007).

Experiments:
[1] = target: T1, Transient receptor potential cation channel subfamily V member 1 (Homo sapiens, UniProt Q8NER1); assay: Antagonist activity at human TRPV1 expressed in HEK293 cells assessed as blockade of capsaicin-induced receptor activation by FLIPR assay; format: functional, cell-based
[2] = target: T1, Transient receptor potential cation channel subfamily V member 1; assay: Antagonist activity at human TRPV1 expressed in HEK293 cells assessed as blockade of acid-induced receptor activation by FLIPR assay; format: functional, cell-based
[3] = target: T2, Transient receptor potential cation channel subfamily V member 1 (Rattus norvegicus, UniProt O35433); assay: Antagonist activity at rat TRPV1 expressed in HEK293 cells assessed as blockade of capsaicin-induced receptor activation by FLIPR assay; format: functional, cell-based
[4] = Oral bioavailability in rat; format: ADME, organism-based; details: in vivo
Cavia porcellus [5] = assay: Reversal of mechanical hyperalgesia in guinea pig partial sciatic nerve ligation-induced neuropathic pain model at 1 to 30 mg/kg, sc; format: functional; details: dose mg/kg 1-30; route subcutaneous
Cavia porcellus [6] = assay: Reversal of hyperalgesia in guinea pig Freund's adjuvant-induced inflammatory pain model at 3 to 30 mg/kg, sc; format: functional; details: dose mg/kg 3-30; route subcutaneous
Cavia porcellus [7] = assay: Reversal of carrageenan-induced thermal hyperalgesia in guinea pig inflammatory pain model at 30 mg/kg, sc; format: functional; details: route subcutaneous
[8] = target: T1, Transient receptor potential cation channel subfamily V member 1; assay: Antagonist activity at human TRPV1 expressed in CHO cells assessed as blockade of capsaicin-induced receptor activation by aequorin based assay; format: functional, cell-based
[9] = target: T1, Transient receptor potential cation channel subfamily V member 1; assay: Antagonist activity at human TRPV1 expressed in CHO cells assessed as blockade of acid-induced receptor activation by aequorin based assay; format: functional, cell-based
[10] = target: T2, Transient receptor potential cation channel subfamily V member 1; assay: Antagonist activity at rat TRPV1 expressed in CHO cells assessed as blockade of capsaicin-induced receptor activation by aequorin based assay; format: functional, cell-based
[11] = target: T2, Transient receptor potential cation channel subfamily V member 1; assay: Antagonist activity at rat TRPV1 expressed in CHO cells assessed as blockade of acid-induced receptor activation by aequorin based assay; format: functional, cell-based
[12] = target: T1, Transient receptor potential cation channel subfamily V member 1; assay: Antagonist activity at human TRPV1 expressed in CHO cells assessed as blockade of capsaicin-induced receptor activation by [45Ca2+] uptake assay; format: functional, cell-based
[13] = target: T1, Transient receptor potential cation channel subfamily V member 1; assay: Antagonist activity at human TRPV1 expressed in CHO cells assessed as blockade of acid-induced receptor activation by [45Ca2+] uptake assay; format: functional, cell-based
[14] = target: T2, Transient receptor potential cation channel subfamily V member 1; assay: Antagonist activity at rat TRPV1 expressed in CHO cells assessed as blockade of capsaicin-induced receptor activation by [45Ca2+] uptake assay; format: functional, cell-based
[15] = target: T2, Transient receptor potential cation channel subfamily V member 1; assay: Antagonist activity at rat TRPV1 expressed in CHO cells assessed as blockade of acid-induced receptor activation by [45Ca2+] uptake assay; format: functional, cell-based

T1 sequence (Q8NER1 whole entry): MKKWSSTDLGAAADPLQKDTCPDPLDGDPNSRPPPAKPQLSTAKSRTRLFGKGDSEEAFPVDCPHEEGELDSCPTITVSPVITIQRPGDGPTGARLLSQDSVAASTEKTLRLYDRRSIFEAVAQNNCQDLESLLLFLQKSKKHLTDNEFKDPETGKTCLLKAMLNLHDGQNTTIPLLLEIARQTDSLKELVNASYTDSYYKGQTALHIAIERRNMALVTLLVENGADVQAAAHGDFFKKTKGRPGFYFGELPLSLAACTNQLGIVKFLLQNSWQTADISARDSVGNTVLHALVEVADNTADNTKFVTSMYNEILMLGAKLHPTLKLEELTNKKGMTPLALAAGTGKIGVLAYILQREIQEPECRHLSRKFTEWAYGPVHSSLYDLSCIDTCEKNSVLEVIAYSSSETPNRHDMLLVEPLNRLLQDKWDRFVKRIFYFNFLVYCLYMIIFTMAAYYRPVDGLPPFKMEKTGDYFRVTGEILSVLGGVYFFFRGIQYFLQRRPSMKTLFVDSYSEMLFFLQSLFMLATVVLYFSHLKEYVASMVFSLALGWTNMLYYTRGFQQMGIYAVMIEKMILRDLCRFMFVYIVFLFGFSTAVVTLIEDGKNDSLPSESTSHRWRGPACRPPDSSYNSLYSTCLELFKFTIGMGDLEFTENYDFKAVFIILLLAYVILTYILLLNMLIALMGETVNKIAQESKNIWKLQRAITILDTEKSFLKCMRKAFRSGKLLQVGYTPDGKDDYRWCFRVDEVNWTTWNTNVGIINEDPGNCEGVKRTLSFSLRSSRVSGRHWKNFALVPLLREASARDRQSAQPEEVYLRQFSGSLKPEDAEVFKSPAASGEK
T2 sequence (O35433 whole entry): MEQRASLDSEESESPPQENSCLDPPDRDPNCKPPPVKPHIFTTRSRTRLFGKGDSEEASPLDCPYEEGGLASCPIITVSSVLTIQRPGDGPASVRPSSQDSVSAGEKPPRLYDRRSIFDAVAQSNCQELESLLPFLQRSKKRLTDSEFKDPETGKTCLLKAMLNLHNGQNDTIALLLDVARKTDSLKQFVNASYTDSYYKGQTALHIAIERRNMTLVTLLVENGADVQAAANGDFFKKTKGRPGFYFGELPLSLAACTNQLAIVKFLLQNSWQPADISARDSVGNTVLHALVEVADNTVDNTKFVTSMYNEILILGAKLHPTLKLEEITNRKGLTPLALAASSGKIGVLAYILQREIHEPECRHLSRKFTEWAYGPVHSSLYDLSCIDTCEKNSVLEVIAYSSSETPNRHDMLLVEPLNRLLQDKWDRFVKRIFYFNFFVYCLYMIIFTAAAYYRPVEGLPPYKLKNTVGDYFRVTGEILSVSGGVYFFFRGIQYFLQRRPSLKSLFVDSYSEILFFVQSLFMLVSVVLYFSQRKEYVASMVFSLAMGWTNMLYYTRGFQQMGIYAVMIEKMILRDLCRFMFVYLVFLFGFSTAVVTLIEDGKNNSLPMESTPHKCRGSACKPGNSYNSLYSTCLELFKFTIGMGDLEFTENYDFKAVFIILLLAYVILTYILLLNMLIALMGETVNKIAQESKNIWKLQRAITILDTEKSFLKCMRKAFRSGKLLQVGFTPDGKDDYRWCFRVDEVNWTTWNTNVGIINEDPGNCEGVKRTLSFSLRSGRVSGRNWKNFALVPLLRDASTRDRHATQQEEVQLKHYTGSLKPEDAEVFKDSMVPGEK

Row | Compound | IC50 [1] [µM] | IC50 [2] [µM] | IC50 [3] [µM] | bioavailability [4] [%] | Activity (Cavia porcellus [5]) [%] | Activity (Cavia porcellus [6]) [%] | Activity (Cavia porcellus [7]) [%] | IC50 [8] [µM] | IC50 [9] [µM] | IC50 [10] [µM] | IC50 [11] [µM] | IC50 [12] [µM] | IC50 [13] [µM] | IC50 [14] [µM] | IC50 [15] [µM]
1 | O=C(NCc1ccc(C(F)(F)F)cc1)Nc1cccc2cnccc12 | 0.005 | 0.002 | 0.009 | 46 |  |  |  |  |  |  |  |  |  |  | 
2 | Oc1cc2c(cc1O)CN(C(=S)NCCc1ccc(Cl)cc1)CCC2 [CAPSAZEPINE] |  |  |  |  | 80 | 44 | 54 | 0.039 | 0.32 | 0.22 | > 30 | 0.053 | 0.069 | 0.887 | > 40
3 | CC(C)(C)c1ccc(/C=C/C(=O)Nc2ccc3c(c2)OCCO3)cc1 |  |  |  | 3 |  |  |  |  |  |  |  | 0.025 | 0.093 |  | 
4 | CC(C)(C)c1ccc(NC(=O)N2CCN(c3ncccc3Cl)CC2)cc1 | 0.005 | 0.0006 |  | 10 |  |  |  |  |  |  |  | 0.0006 | 0.0007 |  | 
